# Reference: patent US9296778B2, “3′,5′-cyclic phosphate prodrugs for HCV infection” (Idenix Pharmaceuticals, Inc., priority 2012, dated 2016)
# Legend:
# [1] = Liver pharmacokinetics following a single oral dose in CD-1 mice; assay type: in vivo; conditions: single oral dose 25 mg/kg in PEG 200, CD-1 male mice; given at 1 μmol/kg
# Method in brief: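 Male CD-1 mice given 25 mg/kg test compound orally in PEG 200; liver snap-frozen in situ at 4, 12 and 24 h (3 per time). Liver 2′-MeGTP measured after TCA homogenization and anion-exchange SPE by LC-MS/MS, calibration 50–50000 pmol/g liver.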
# in vitro = conditions: human, HCV Replicon CC50, Zluc cells, CellTiter-Blue
# [2] = Stability in fresh human whole blood; assay type: in vitro ADME; conditions: 0.5 μM, percent unchanged test compound
# Method in brief: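 Test compound at 0.5 μM was incubated at 37 °C in fresh human K2EDTA whole blood, stored at 2–8 °C and used within 7 days, in triplicate. Samples taken at 0, 0.5, 1 and 2 h were quenched in cold acetonitrile containing internal standard and analysed by LC-MS/MS. Percent unchanged compound was derived from peak-area ratios.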
# [3] = Stability in simulated intestinal fluid; assay type: in vitro ADME; conditions: 100 μM, 2 hours at 37° C., percent of the peak area at time zero
# Method in brief: (§1)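 Compounds at 100 μM final, in duplicate, kept 2 h at 37° C in USP gastric fluid (pepsin) or intestinal fluid (pancreatin). Quenched with cold acetonitrile, supernatant analysed by C-18 HPLC, UV 252 nm. Remaining compound expressed as percent of time-zero peak area.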
# HCV genotype 1b replicon = experiment: HCV Replicon Assay; assay type: cell-based; conditions: Hepatitis C virus, 72 h, Zluc cells (Huh-7-derived, HCV genotype 1b replicon, luciferase reporter), 72 hours; read-out: HCV Replicon EC50
# Method in brief: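 Zluc Huh-7 cells with HCV genotype 1b replicon and luciferase reporter treated with 5-fold dilutions (100 μM to 0.0000512 μM final) in duplicate, or at 1 and 10 μM. Luminescence read with ONE-glo; EC50 from dose-response fits, or % inhibition at the fixed concentrations.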
# [4] = Stability in simulated gastric fluid; assay type: in vitro ADME; conditions: 100 μM, 2 hours at 37° C., percent of the peak area at time zero
# Method in brief: as §1
smiles,measurement,setting,value
"CCOc1nc(N)nc2c1ncn2[C@@H]1O[C@@H]2COP(=O)(OCCCC(=O)OC(C)C)O[C@H]2[C@@]1(C)F (single isomer, unassigned) [Compound 20 Diastereomer 1]",Ms Liver 2′-MeGTP AUC,[1],410 pmol · hr/g at 1 μmol/kg
same,CC50,in vitro,> 50 µM
same,Stability WB_Human (37° C.; 2 hr),[2],98%
same,Stability SIF,[3],95%
same,EC50,HCV genotype 1b replicon,< 0.25 µM
same,Stability SGF,[4],98%
